Test results as given in patent publication US20190364896A1, “SYNERGISTIC WEED CONTROL FROM APPLICATIONS OF PYRIDINE CARBOXYLIC ACID HERBICIDES AND ALS INHIBITORS” (Dow AgroSciences LLC, priority 2014, published 2019).
Like-named read-outs stand apart in the source and are kept apart here.

Experiments:
[1] = test system: spring rape (Brassica napus, BRSNN); experiment: Postemergence herbicidal activity, greenhouse trial (visual injury 0-100%); assay type: in vivo
[2] = test system: pigweed (Amaranthus retroflexus, AMARE); experiment: as above; assay type: in vivo; conditions: Amaranthus retroflexus, post-emergence, read-out: % visual injury Obs
How it was run: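 Greenhouse plants at the 2nd–3rd true-leaf stage (14 h photoperiod, ~23/22 °C) were track-sprayed at 187 L/ha with acetone/DMSO stocks diluted in 1.5% v/v crop oil concentrate. Rates were g ae/ha for component (a) and g ai/ha for (b). Injury versus solvent-blank controls was rated visually at 20–22 d, with Colby's equation giving expected mixture effects.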

[3] = test system: rutabaga (Brassica napus var. napobrassica, BRSNA); experiment: as above; assay type: in vivo; conditions: 5 g ae/ha
Method: (§1) Seeds of the desired test plant species were planted in Sun Gro MetroMix® 306 planting mixture, which typically has a pH of 6.0 to 6.8 and an organic matter content of about 30 percent, in plastic pots with a surface area of 103.2 square centimeters (cm^2). […] The plants were grown for 7-36 days (d) in a greenhouse with an approximate 14-hour (h) photoperiod which was maintained at about 23° C. during the day and 22° C. during the night. Nutrients and water were added on a regular basis and supplemental lighting was provided with overhead metal halide 1000-Watt lamps as necessary. The plants were employed for testing when they reached the second or third true leaf stage.
(§2) Weighed amounts of technical material were dissolved in a volume of 97:3 volume per volume (v/v) acetone/dimethyl sulfoxide (DMSO) to stock solutions. […] The concentrated stock solutions were diluted with an aqueous mixture of 1.5% v/v of Agri-dex crop oil concentrate to provide the appropriate application rates. Compound requirements are based upon a 12 milliliter (mL) application volume at a rate of 187 liters per hectare (L/ha). Spray solutions of the experimental compound mixtures were prepared by adding the stock solutions to the appropriate amount of dilution solution to form a 12 mL spray solution in two-way combinations. Formulated compounds were applied to the plant material with an overhead Mandel track sprayer equipped with 8002E nozzles calibrated to deliver 187 L/ha over an application area of 0.503 square meters (m^2) at a spray height of 18 inches (43 centimeters (cm)) above average plant canopy. Control plants were sprayed in the same manner with the solvent blank. Application rates for component (a) are in g ae/ha, and application rates for component (b) are in g ai/ha.
(§3) The treated plants and control plants were placed in a greenhouse as described above and watered by sub-irrigation to prevent wash-off of the test compounds. After 20-22 d, the condition of the test plants as compared with that of the control plants was determined visually and scored on a scale of 0 to 100 percent where 0 corresponds to no injury and 100 corresponds to complete kill. The condition of the test plants was compared with that of the control plants as determined visually and scored on a scale of 0 to 100 percent, where 0 corresponds to no injury and 100 corresponds to complete kill. Colby's equation was used to determine the herbicidal effects expected from the mixtures.
(§4) Compound 1 was formulated as an EC and was combined with imazamox, imazamethabenz, imazapic, imazapyr or imazethapyr. The mixtures were applied to winter wheat (TRZAW) and/or maize (ZEAMX), and the phytotoxicity of the herbicidal compositions was measured. In addition, the efficacy of the herbicidal compositions on blackgrass (Alopecurus myosuroides, ALOMY), wild oat (Avena fatua, AVEFA), winter rape (Brassica napus, BRSNW), spring rape (Brassica napus, BRSNN), turnip (Brassica rapa, BRSRR), thistle (Cirsium arvense, CIRAR), large crabgrass (Digitaria sanguinalis, DIGSA), pigweed (Amaranthus retrollexus, AMARE), common lambsquarters (Chenopodium album L., CHEAL), poinsettia (Euphorbia heterophylla, EPHHL), ivyleaf morning-glory (Ipomoea hederacea, IPOHE), kochia (Kochia scoparia, KCHSC), wild buckwheat (Polygonum convolvulus, POLCO), grain sorghum (Sorghum vulgare, SORVU), chickweed (Stellaria media, STEME), wild pansy (Viola tricolor, VIOTR), sunflower (Helianthus annuus, HELAN), giant foxtail (Setaria faberi, SETFA), soybean (Glycine max, GLXMA), rutabaga (Brassica napus var. napobrassica, BRSNA) and barnyardgrass (Echinochloa crus-galli, ECHCG) was evaluated.

[4] = test system: soybean (Glycine max, GLXMA); experiment: as above; assay type: in vivo
Method: as §1, §2, §3, §4

[5] = test system: turnip (Brassica rapa, BRSRR); experiment: as above; assay type: in vivo; conditions: 5 g ae/ha
Method: as §1, §2, §3, §4

[6] = test system: giant foxtail (Setaria faberi, SETFA); experiment: as above; assay type: in vivo
[7] = test system: brown mustard (Brassica juncea, BRSJU); experiment: as above; assay type: in vivo; conditions: Compound 1 5 g ae/ha
[8] = test system: winter wheat (Triticum aestivum, TRZAW); experiment: Postemergence crop injury (phytotoxicity), greenhouse trial (visual injury 0-100%); conditions: 7.5 g ai/ha
Method: as §1, §2, §3
Compound 2 was combined with florasulam and applied to winter wheat (TRZAW) and the phytotoxicity of the herbicidal composition was measured. In addition, the efficacy of the herbicidal composition on poinsettia (Euphorbia heterophylla, EPHHL) and […] (Cyperus esculentus, CYPES) was evaluated.
Weighed amounts of technical or formulated material (emulsifiable concentrate (EC) or soluble concentrate (SL)) were dissolved in a volume of 97:3 volume per volume (v/v) acetone/dimethyl sulfoxide (DMSO) to stock solutions. […] The concentrated stock solutions were diluted with an aqueous mixture of 1.5% v/v of Agri-dex crop oil concentrate to provide the appropriate application rates. Compound requirements are based upon a 12 milliliter (mL) application volume at a rate of 187 liters per hectare (L/ha). Spray solutions of the experimental compound mixtures were prepared by adding the stock solutions to the appropriate amount of dilution solution to form a 12 mL spray solution in two-way combinations. […]

SMILES	% visual injury Obs ([1]; 5 g ae/ha) [%]	% visual injury Obs ([1]; BRSNN, Compound 1 5 g ae/ha) [%]	pest or weed control at 5 g/ha ([2]; 5 g ae/ha) [%]	pest or weed control at 10 g/ha ([2]; 10 g ae/ha) [%]	pest or weed control at 5 g/ha ([2]; AMARE, Compound 1 5 g ae/ha) [%]	pest or weed control at 10 g/ha ([2]; AMARE, Compound 1 10 g ae/ha) [%]	% visual injury Obs [3] [%]	% visual injury Obs ([4]; 5 g ae/ha) [%]	% visual injury Obs ([4]; 10 g ae/ha) [%]	% visual injury Obs [5] [%]	% visual injury Obs ([6]; 5 g ae/ha) [%]	% visual injury Obs ([6]; 10 g ae/ha) [%]	% visual injury Obs ([6]; SETFA, Compound 1 5 g ae/ha) [%]	% visual injury Obs ([6]; SETFA, Compound 1 10 g ae/ha) [%]	% visual injury Obs [7] [%]	% visual injury Obs [8] [%]
Nc1c(F)c(-c2ccc3cc[nH]c3c2F)nc(C(=O)O)c1Cl [Compound 1]	50	70	95	97	75	97	65	95	100	50	10	50	10	50	60	
CCCOc1nn(C(=O)NS(=O)(=O)c2ccccc2C(=O)OC)c(=O)n1C [Propoxycarbazone, propoxycarbazone]																10
